Source: patent US20190375708A1 (VenatoRx Pharmaceuticals, Inc., priority 2018, published 2019)

Tests used:
[1] = tested on: HBV replication in HepAD38 cells; assay: Anti-HBV replication assay in HepAD38 cells (QPCR of extracellular HBV DNA); type: cell-based, HBV (genotype D, serotype ayw); settings: Hepatitis B virus, 168 h, 7 days incubation, extracellular HBV DNA by QPCR, read-out: Anti-HBV EC50
Summary of the method: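 HepAD38 cells (HepG2 carrying a tet-repressible HBV genotype D genome) were seeded in tetracycline-free medium and treated next day with compound […] for 7 days. Supernatant HBV DNA was measured by QPCR against a standard curve; EC50 came from 4-parameter fits of inhibition versus DMSO control.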

[2] = In vitro cytotoxicity assay (MTT cell viability) in HepG2 cells; type: cell-based, human; settings: human
Summary of the method: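 Parental HepG2 cells in EMEM + 10% FBS were exposed to compounds (8 half-log dilutions, 30 μM to 1.0 nM) for 7 days at 37 °C, 5% CO2. MTT was then added for 3-4 h, formazan dissolved in DMSO and absorbance read at 492 nm; CC50 came from 4-parameter fits against vehicle controls.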

With `CC(C)(O)CNC(=O)C(=O)c1c(Cl)c(C(=O)Nc2ccc(F)c(Cl)c2)c2n1CCC2` [Example 557, 6-chloro-N-(3-chloro-4-fluorophenyl)-5-(2-((2-hydroxy-2-methylpropyl)amino)-2-oxoacetyl)-2,3-dihydro-1H-pyrrolizine-7-carboxamide] the EC50 [1] was < 50 nM and the CC50 at 7 days [2] was 5000 to 30000 nM.

For `Cc1cc(NC(=O)c2c(C)c(C(=O)C(=O)NC3(C(F)(F)F)CCOCC3)n(CCF)c2C)ccc1F` [Example 230, N-(4-fluoro-3-methylphenyl)-1-(2-fluoroethyl)--2,4-dimethyl-5-(2-oxo-2-((4-(trifluoromethyl)tetrahydro-2H-pyran-4-yl)amino)acetyl)-1H-pyrrole-3-carboxamide], the EC50 [1] was < 50 nM and the CC50 at 7 days [2] was > 30000 nM.

In the case of `Cc1cc(NC(=O)c2c(C)c(C(=O)C(=O)NC3(C(N)=O)CC3)n(C)c2C)ccc1F` [Example 37, 5-(2-((1-carbamoylcyclopropyl)amino)-2-oxoacetyl)-N-(4-fluoro-3-methylphenyl)-1,2,4-trimethyl-1H-pyrrole-3-carboxamide], the EC50 [1] is reported as < 50 nM and the CC50 at 7 days [2] is reported as > 30000 nM.

In the case of `Cc1c(C(=O)Nc2cccc(C(F)F)c2)c(C)n(C)c1C(=O)C(=O)N[C@@H]1CC[C@@H](O)C1` [Example 721, N-(3-(difluoromethyl)phenyl)-5-(2-(((1R,3R)-3-hydroxycyclopentyl)amino)-2-oxoacetyl)-1,2,4-trimethyl-1H-pyrrole-3-carboxamide], the EC50 [1] is reported as < 50 nM and the CC50 at 7 days [2] is reported as > 30000 nM.

With `Cc1cc(NC(=O)c2c(C)c(C(=O)C(=O)N[C@@H]3C[C@H](O)[C@H]4OC(C)(C)O[C@H]43)n(C)c2C)ccc1F` [Example 695, N-(4-fluoro-3-methylphenyl)-5-(2-(((3aS,4R,6S,6aR)-6-hydroxy-2,2-dimethyltetrahydro-4H-cyclopenta[d][1,3]dioxol-4-yl)amino)-2-oxoacetyl)-1,2,4-trimethyl-1H-pyrrole-3-carboxamide] the EC50 [1] was < 50 nM and the CC50 at 7 days [2] was > 30000 nM.

With `Cc1cc(NC(=O)c2c(C)c(C(=O)C(=O)NC3(C)CCN(c4nccs4)CC3)n(C)c2C)ccc1F` [Example 699, N-(4-fluoro-3-methylphenyl)-1,2,4-trimethyl-5-(2-((4-mmethyl-1-(thiazol-2-yl)piperidin-4-yl)amino)-2-oxoacetyl)-1H-pyrrole-3-carboxamide] the EC50 [1] was < 50 nM and the CC50 at 7 days [2] was 5000 to 30000 nM.

For `CC(=O)N1CCC(C)(NC(=O)C(=O)c2c(C)c(C(=O)Nc3ccc(F)c(C)c3)c(C)n2C)CC1` [Example 612, 5-(2-((1-acetyl-4-methylpiperidin-4-yl)amino)-2-oxoacetyl)-N-(4-fluoro-3-methylphenyl)-1,2,4-trimethyl-1H-pyrrole-3-carboxamide], the EC50 [1] was < 50 nM and the CC50 at 7 days [2] was > 30000 nM.

With `Cc1cc(NC(=O)c2cc(C(=O)C(=O)NC(C)(C)CO)n3c2CCCC3)ccc1F` [Example 411, N-(4-fluoro-3-methylphenyl)-3-(2-((1-hydroxy-2-methylpropan-2-yl)amino)-2-oxoacetyl)-5,6,7,8-tetrahydroindolixzine-1-carboxamide] the EC50 [1] was 50 to 499 nM and the CC50 at 7 days [2] was > 30000 nM.

In the case of `Cc1noc([C@H](C)NC(=O)C(=O)c2c(C)c(C(=O)Nc3ccc(F)c(Cl)c3)c3n2CCCC3)n1` [Example 446, (S)-N-(3-chloro-4-fluorophenyl)-2-methyl-3-(2-((1-(3-methyl-1,2,4-oxadiazol-5-yl)ethyl)amino)-2-oxoacetyl)-5,6,7,8-tetrahydroindolizine-1-carboxamide], the EC50 [1] is reported as 50 to 499 nM and the CC50 at 7 days [2] is reported as 5000 to 30000 nM.

For `Cc1cc(NC(=O)c2c(C)c(C(=O)C(=O)N[C@H]3CC[C@H](O)C3)n(CCF)c2C)ccc1F` [Example 194, N-(4-fluoro-3-methylphenyl)-1-(2-fluoroethyl)-5-(2-(((1S,3S)-3-hydroxycyclopentyl)amino)-2-oxoacetyl)-2,4-dimethyl-1H-pyrrole-3-carboxamide], the EC50 [1] was 50 to 499 nM and the CC50 at 7 days [2] was > 30000 nM.

In the case of `Cc1cc(NC(=O)c2c(C)c(C(=O)C(=O)N[C@H](C(=O)OC(C)(C)C)C(C)(C)C)n(C)c2C)ccc1F` [Example 23, tert-butyl (S)-2-(2-(4-((4-fluoro-3-methylphenyl)carbamoyl)-1,3,5-trimethyl-1H-pyrrol-2-yl)-2-oxoacetamido)-3,3-dimethylbutanoate], the EC50 [1] is reported as 50 to 499 nM and the CC50 at 7 days [2] is reported as > 30000 nM.

For `Cc1cc(NC(=O)c2c(C)c(C(=O)C(=O)NC3(C(F)(F)F)CCOC3)n(C)c2C)ccc1F` (stereo not shown) [Example 278, N-(4-fluoro-3-methylphenyl)-1,2,4-trimethyl-5-(2-oxo2-((3-(trifluoromethyl)tetrahydrofuran-3-yl)amino)acetyl)-1H-pyrrole-3-carboxamide], the EC50 [1] was < 50 nM and the CC50 at 7 days [2] was > 30000 nM.

With `Cc1cc(NC(=O)c2c(C)c(C(=O)C(=O)NC(C)(C)C(F)(F)F)n(CCF)c2C)ccc1F` [Example 227, N-(4-fluoro-3-methylphenyl)-1-(2-fluoroethyl)-2,4-dimethyl-5-(2-oxo-2-((1,1,1-trifluoro-2-methylpropan-2-yl)amino)acetyl)-1H-pyrrole-3-carboxamide] the EC50 [1] was < 50 nM and the CC50 at 7 days [2] was > 30000 nM.

For `Cc1c(C(=O)Nc2ccnc(F)c2)c(C)n(C)c1C(=O)C(=O)NC1CCSCC1` [Example 272, N-(2-fluoropyridin-4-yl)-1,2,4-trimethyl-5-(2-oxo-2-((tetrahydro-2H-thiopyran-4-yl)amino)acetyl)-1H-pyrrole-3-carboxamide], the EC50 [1] was < 50 nM and the CC50 at 7 days [2] was > 30000 nM.

With `Cc1cc(NC(=O)c2c(C)c(C(=O)C(=O)N[C@H]3C[C@H](O)C3)n3c2CCCC3)ccc1F` [Example 438, N-(4-fluoro-3-methylphenyl)-3-(2-(((1r,3r)-3-hydroxycyclobutyl)amino)-2-oxoacetyl)-2-methyl-5,6,7,8-tetrahydroindolizine-1-carboxamide] the EC50 [1] was 50 to 499 nM and the CC50 at 7 days [2] was > 30000 nM.

With `O=C(N[C@H]1COC[C@@H]1O)C(=O)c1c(Cl)c(C(=O)Nc2ccc(F)c(F)c2)c2n1CCC2` [Example 570, 6-chloro-N-(3,4-difluorophenyl)-5-(22-(((3S,4R)-4-hydroxytetrahydrofuran-3-yl)amino)-2-oxoacetyl)-2,3-dihydro-1H-pyrrolizine-7-carboxamide] the EC50 [1] was < 50 nM and the CC50 at 7 days [2] was > 30000 nM.

For `Cc1noc([C@@H](C)NC(=O)C(=O)c2c(Cl)c(C(=O)Nc3cnc(F)c(C)c3)c3n2CCCC3)n1` [Example 522, (R)-2-chloro-N-(6-fluoro-5-methylpyridin-3-yl)-3-(2-((1-(3-methyl-1,2,4-oxadiazol-5-yl)ethyl)amino)-2-oxoacetyl)-5,6,7,8-tetrahydroindolizine-1-carboxamide], the EC50 [1] was > 1000 nM and the CC50 at 7 days [2] was > 30000 nM.

For `Cc1c(C(=O)Nc2ncc(C(F)(F)F)s2)c2n(c1C(=O)C(=O)NC(C)(C)CO)CCCC2` [Example 757, 3-(2-((1-hydroxy-2-methylpropan-2-yl)amino)-2-oxoacetyl)-2-methyl-N-(5-(trifluoromethyl)thiazol-2-yl)-5,6,7,8-tetrahydroindolizine-1-carboxamide], the EC50 [1] was 50 to 499 nM and the CC50 at 7 days [2] was > 30000 nM.

With `Cc1cc(NC(=O)c2c(C)c(C(=O)C(=O)NC(C)(C)C)n(C)c2Cl)ccc1F` [Example 386, 5-(2-(tert-butylamino)-2-oxoacetyl)-2-chloro-N-(4-fluoro-3-methylphenyl)-1,4-dimethyl-1H-pyrrole-3-carboxamide] the EC50 [1] was > 1000 nM and the CC50 at 7 days [2] was 5000 to 30000 nM.

For `Cc1cc(NC(=O)c2cc(C(=O)C(=O)NC3(CO)CC(F)(F)C3)n3c2CCCC3)ccc1F` [Example 432, 3-(2-((3,3-difluoro-1-(hydroxymethyl)cyclobutyl)amino)-2-oxoacetyl)-N-(4-fluoro-3-methylphenyl)-5,6,7,8-tetrahydroindolizine-1-carboxamide], the EC50 [1] was 50 to 499 nM and the CC50 at 7 days [2] was > 30000 nM.

With `Cc1cc(NC(=O)c2cc(C(=O)C(=O)NC(C)(C)C)n3c2CCCC3)ccc1F` [Example 393, 3-(2-(tert-butylamino)-2-oxoacetyl)-N-(4-fluoro-3-methylphenyl)-5,6,7,8-tetrahydroindolizine-1-carboxamide] the EC50 [1] was 50 to 499 nM and the CC50 at 7 days [2] was > 30000 nM.

For `Cc1cc(NC(=O)c2c(C)c(C(=O)C(=O)NC(C)(C)c3noc(CN(C)C)n3)n(C)c2C)ccc1F` [Example 154, 5-(2-((2-(5-((dimethylamino)methyl)-1,2,4-oxadiazol-3-yl)propan-2-yl)amino)-2-oxoacetyl)-N-(4-fluoro-3-methylphenyl)-1,2,4-trimethyl-1H-pyrrole-3-carboxamide], the EC50 [1] was < 50 nM and the CC50 at 7 days [2] was > 30000 nM.

With `Cc1c(C(=O)Nc2ccc(F)c(Cl)c2)c(C)n(C)c1C(=O)C(=O)NC(C)(C)CN1CCOCC1` [Example 332, N-(3-chloro-4-fluorophenyl)-1,2,4-trimethyl-5-(2-((2-methyl-1-morpholinopropan-2-yl)amino)-2-oxoacetyl)-1H-pyrrole-3-carboxamide] the EC50 [1] was < 50 nM and the CC50 at 7 days [2] was > 30000 nM.

With `Cc1c(C(=O)NC2CCC(F)(F)C2)c2n(c1C(=O)C(=O)NC(C)(C)CO)CCCC2` (stereo not shown) [Example 752, N-(3,3-difluorocyclopentyl)-3-(2-((1-hydroxy-2-methylpropan-2-yl)amino)-2-oxoacetyl)-2-methyl-5,6,7,8-tetrahydroindolizine-1-carboxamide] the EC50 [1] was 50 to 499 nM and the CC50 at 7 days [2] was > 30000 nM.

With `Cc1cc(NC(=O)c2c(C)c(C(=O)C(=O)NC3(CO)CCC3)n(C)c2C)ccc1F` [Example 12, N-(4-fluoro-3-methylphenyl)-5-(2-((1-(hydroxymethyl)cyclobutyl)amino)-2-oxoacetyl)-1,2,4-trimethyl-1H-pyrrole-3-carboxamide] the EC50 [1] was < 50 nM and the CC50 at 7 days [2] was > 30000 nM.

With `Cc1c(C(=O)Nc2cncc(Cl)c2)c(C)n(C)c1C(=O)C(=O)N[C@H](C)C(F)(F)F` [Example 727, (R)-N-(5-chloropyridin-3-yl)-1,2,,4-trimethyl-5-(2-oxo-2-((1,1,1-trifluoropropan-2-yl)amino)acetyl)-1H-pyrrole-3-carboxamide] the EC50 [1] was < 50 nM and the CC50 at 7 days [2] was > 30000 nM.
